The text below walks through data of ChEMBL document CHEMBL1201862, “PubChem BioAssay data set” (2004).

Molecules are shown by their SMILES.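 Method: 48-hour compound exposure of cells in 96-well plates, five concentrations, linear interpolation of endpoints. GI50 marks 50% less growth.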 Activity calls are given as the source filed them. Cut-off read from the data, not from the text of the source: active = GI50 up to about 1.1 µM and inactive = higher.

Test systems include OVCAR-4; MDA-MB-435; HOP-92; HCC 2998; SW-620; PC-3; SNB-75; NCI-H226; IGROV-1; SK-MEL-2; CAKI-1; BT-549; MDA-MB-231; SF-295; SNB-19; MDA-N; TK-10; MOLT-4.
Holding throughout (assay): growth of human tumour cells (NCI), 48 h

On to `CNc1nnc(CNc2ccc(-c3nnc(NC)n3N)cc2)n1N`, for which the GI50 in the assay on OVCAR-4 is > 100 µM (inactive); with MDA-MB-435 it was > 100 µM (inactive); in the assay with HOP-92 it was > 100 µM (inactive); in the assay with HCC 2998 it was < 0.01 µM (active); in the assay on SW-620, > 100 µM (inactive); in the assay with PC-3 it was > 100 µM (inactive). In addition, the GI50 with SNB-75 is > 100 µM (inactive); with NCI-H226 it was > 100 µM (inactive); in the assay with IGROV-1 it was > 100 µM (inactive); in the assay on SK-MEL-2 it was > 100 µM (inactive); in the assay with CAKI-1 it was > 100 µM (inactive); with BT-549, 12.4 µM (inactive). The GI50 in the assay on MDA-MB-231, with SF-295, in the assay with SNB-19, in the assay with MDA-N, with TK-10 and in the assay on MOLT-4 was > 100 µM (inactive) throughout.
On to `COc1ccc(Nc2nc(N)c(C(=O)c3ccc(Cl)cc3)s2)cc1`, for which the GI50 with OVCAR-4 was 0.121 µM (active); in the assay with MDA-MB-435, < 0.01 µM (active); in the assay with HOP-92, 18.2 µM (inactive); with HCC 2998 it was 0.0357 µM (active); with SW-620, < 0.01 µM (active); in the assay on PC-3 it was < 0.01 µM (active). In addition, the GI50 in the assay on SNB-75 is < 0.01 µM (active); with NCI-H226, 0.018 µM (active); with IGROV-1 it was 0.0655 µM (active); with SK-MEL-2 it was < 0.01 µM (active); in the assay with CAKI-1, < 0.01 µM (active); in the assay with BT-549, < 0.0135 µM (active). Besides, the GI50 is 0.047 µM (active) with MDA-MB-231; < 0.01 µM (active) with SF-295; < 0.01 µM (active) with SNB-19; < 0.01 µM (active) in the assay with MDA-N; 3.61 µM (inactive) in the assay on TK-10; < 0.01 µM (active) in the assay on MOLT-4.
Regarding `O=P12N(CCN1c1ccccc1)CCN2c1ccccc1`, the GI50 is > 100 µM (inactive) in the assay with OVCAR-4; > 100 µM (inactive) in the assay with MDA-MB-435; 80.7 µM (inactive) in the assay with HOP-92; > 100 µM (inactive) with HCC 2998; > 100 µM (inactive) with SW-620; > 100 µM (inactive) with PC-3. Moreover, the GI50 was 63.7 µM (inactive) in the assay on SNB-75; > 100 µM (inactive) with NCI-H226; > 100 µM (inactive) in the assay on IGROV-1; > 100 µM (inactive) in the assay with SK-MEL-2; > 100 µM (inactive) in the assay with CAKI-1; > 100 µM (inactive) in the assay on BT-549. For the same compound, the GI50 with MDA-MB-231, with SF-295, in the assay on SNB-19, in the assay with MDA-N, in the assay on TK-10 and in the assay on MOLT-4 was > 100 µM (inactive) throughout.
As to `O=C(NCCc1ccc(F)cc1)c1cc(/C=C/c2cc(O)ccc2O)ccc1O`, the GI50 in the assay with OVCAR-4 was 2.67 µM (inactive); in the assay with MDA-MB-435 it was 3.78 µM (inactive); with HOP-92, 1.85 µM (inactive); in the assay with HCC 2998 it was 7.23 µM (inactive); in the assay with SW-620, 7.64 µM (inactive); in the assay on PC-3 it was 2.96 µM (inactive). Besides, the GI50 with SNB-75 was 4.57 µM (inactive); in the assay with NCI-H226 it was 8.59 µM (inactive); in the assay with IGROV-1, 2.31 µM (inactive); in the assay with SK-MEL-2, 2.67 µM (inactive); with CAKI-1, 3.03 µM (inactive); with BT-549, 1.44 µM (inactive). Also, the GI50 was 3.3 µM (inactive) in the assay on MDA-MB-231; 16.1 µM (inactive) in the assay on SF-295; 5.45 µM (inactive) with SNB-19; 3.05 µM (inactive) with MDA-N; 2.61 µM (inactive) with TK-10; 2.48 µM (inactive) in the assay on MOLT-4.
On to `CC1=NN(c2nc(N)nc(/C(C#N)=C\c3ccc(-c4ccc([N+](=O)[O-])cc4)o3)n2)C(C)(C)C1`, for which the GI50 in the assay on OVCAR-4, in the assay with MDA-MB-435, with HOP-92, in the assay with HCC 2998, in the assay with SW-620 and with PC-3 was > 100 µM (inactive) throughout. Further, the GI50 is 14.2 µM (inactive) in the assay on SNB-75; > 100 µM (inactive) in the assay with NCI-H226; > 100 µM (inactive) in the assay with IGROV-1; > 100 µM (inactive) with SK-MEL-2; > 100 µM (inactive) in the assay with CAKI-1; > 100 µM (inactive) with BT-549. The GI50 in the assay with MDA-MB-231 is 27.5 µM (inactive); in the assay on SF-295 it was > 100 µM (inactive); with SNB-19, > 100 µM (inactive); with MDA-N, > 100 µM (inactive); with TK-10 it was > 100 µM (inactive); in the assay on MOLT-4 it was > 100 µM (inactive).
As for `O=c1[nH]nc(Cc2ccc(Cl)cc2)n1/N=C\CC/C=N\n1c(Cc2ccc(Cl)cc2)n[nH]c1=O`, the GI50 was > 81.3 µM (inactive) in the assay on OVCAR-4; > 53.6 µM (inactive) in the assay with MDA-MB-435; > 55.5 µM (inactive) in the assay on HOP-92; > 100 µM (inactive) in the assay on HCC 2998; > 62.2 µM (inactive) in the assay with SW-620; > 51.9 µM (inactive) in the assay with PC-3. For the same compound, the GI50 in the assay on SNB-75 was 7.96 µM (inactive); in the assay with NCI-H226, 18.4 µM (inactive); with IGROV-1 it was 9.93 µM (inactive); in the assay on SK-MEL-2, 29.8 µM (inactive); with CAKI-1, > 56 µM (inactive); in the assay on BT-549 it was 12.2 µM (inactive). The GI50 is 25.8 µM (inactive) with MDA-MB-231; 24.4 µM (inactive) with SF-295; 32.9 µM (inactive) in the assay on SNB-19; > 50.9 µM (inactive) in the assay on MDA-N; > 100 µM (inactive) with TK-10; > 24.1 µM (inactive) in the assay on MOLT-4.
Consider `O=C1CC(O)c2c(Cl)sc(Cl)c21` (centres undefined), for which the GI50 in the assay on OVCAR-4 was 18.9 µM (inactive); in the assay on MDA-MB-435, 8.02 µM (inactive); in the assay on HOP-92, 3.11 µM (inactive); in the assay with HCC 2998, 27.2 µM (inactive); in the assay with SW-620 it was 3.13 µM (inactive); in the assay on PC-3, 13.3 µM (inactive). Further, the GI50 in the assay on SNB-75 is 14.4 µM (inactive); in the assay on NCI-H226 it was 15.1 µM (inactive); in the assay with IGROV-1, 8.13 µM (inactive); in the assay with SK-MEL-2 it was 13.5 µM (inactive); in the assay on CAKI-1, 3.3 µM (inactive); in the assay on BT-549, 16 µM (inactive). In addition, the GI50 was 27.7 µM (inactive) in the assay on MDA-MB-231; 23.2 µM (inactive) in the assay on SF-295; 21.7 µM (inactive) with SNB-19; 9.33 µM (inactive) with MDA-N; 15.9 µM (inactive) in the assay with TK-10; 2.81 µM (inactive) with MOLT-4.
On to `COc1c(O)c(O)c2c(c1O)C(=O)c1cc(C)cc(O)c1C2=O`, for which the GI50 in the assay on OVCAR-4 was 14.4 µM (inactive); in the assay on MDA-MB-435, 53.8 µM (inactive); with HOP-92, 92 µM (inactive); in the assay on HCC 2998 it was 75.2 µM (inactive); with SW-620, 40 µM (inactive); with PC-3, 31.1 µM (inactive). Further, the GI50 in the assay with SNB-75 is 2.97 µM (inactive); in the assay on NCI-H226 it was 20 µM (inactive); in the assay with IGROV-1, 13.2 µM (inactive); in the assay on SK-MEL-2, > 100 µM (inactive); in the assay on CAKI-1 it was 37.9 µM (inactive); in the assay on BT-549, 40.4 µM (inactive). For the same compound, the GI50 with MDA-MB-231 was 12.2 µM (inactive); in the assay on SF-295, 21.9 µM (inactive); in the assay on SNB-19, 65.3 µM (inactive); with MDA-N it was 53 µM (inactive); with TK-10, 49.3 µM (inactive); with MOLT-4 it was 15.4 µM (inactive).
